Source: PubChem BioAssay AID651795 (Broad Institute, 2012)
Where “and” joins values, the source holds several entries; their conditions need not be identical. Equal values may be shown once. Records with an inconclusive call do not appear. Calls of active or inactive are those of the source.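 Rule for the calls: active = compounds whose fitted curve reaches 40% MLANA inhibition below twice the top dose tried; inconclusive = flat curve with 30 to 70% opposite effect, or poor fit; inactive = the rest.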

Tested on: not listed separately
Experiment: MITF target gene MLANA transcript reduction – cell-based, RT-qPCR, SK-MEL-5, dry powder, dose response (AID 651795)
Settings: SK-MEL-5 MLANA mRNA qPCR, delta delta Ct, overnight; at 35 µM (top of the series)
For `NC1=C(NS(=O)(=O)c2ccc(Br)s2)C(=O)c2ccccc2C1=O`, the MLANA expression inhibition was 31.6% (inactive).

Tested on: SK-MEL-5 MLANA mRNA qPCR, delta delta Ct, overnight
Experiment: as above
Settings: not given
Work on `O=C1C=C(Nc2ccc([N+](=O)[O-])c(C(F)(F)F)c2)C(=O)c2ccccc21` yielded an AC40 of 119 nM. With `NC1=C(NC(=O)c2ccccc2)C(=O)c2ccccc2C1=O` the AC40 was 1540 nM. With `COC1=C(NS(=O)(=O)c2cccs2)C(=O)c2ccccc2C1=O` the AC40 was 10500 nM. Work on `O=C1C(Nc2ccc(Cl)cc2)=C(N2CCCC2)C(=O)c2ccccc21` yielded an AC40 of 8640 nM. In the case of `NC1=C(NS(=O)(=O)c2ccccc2)C(=O)c2ccccc2C1=O`, the AC40 is reported as 4500 nM. With `NC1=CC(=O)c2ccccc2C1=O` the AC40 was 813 nM. `Cc1nc2ccccc2n1/N=C/c1ccc([N+](=O)[O-])s1` gave an AC40 of 2750 nM. With `O=C1C=C(NS(=O)(=O)c2ccc(Br)cc2)C(=O)c2ccccc21` the AC40 was 2440 nM. For `O=C1C=C(Nc2ccccc2)C(=O)c2ccccc21`, the AC40 was 337 nM and 389 nM. `COC1=C(NS(=O)(=O)c2ccc(Br)cc2)C(=O)c2ccccc2C1=O` showed an AC40 of 9120 nM. With `CN1CCN(C2=C(NS(=O)(=O)c3ccc(Br)s3)C(=O)c3ccccc3C2=O)CC1` the AC40 was 2930 nM. `CCN1CCN(C2=C(Nc3ccc(F)cc3F)C(=O)c3ccccc3C2=O)CC1` gave an AC40 of 2480 nM. For `NS(=O)(=O)c1ccc(NC2=CC(=O)c3ccccc3C2=O)cc1`, the AC40 was 82.4 nM. Work on `CC(C)N1CCN(C2=C(Nc3ccc(F)cc3)C(=O)c3ccccc3C2=O)CC1` yielded an AC40 of 5310 nM. Compound `COc1ccc(NC2=C(N3CCCCC3)C(=O)c3ccccc3C2=O)cc1` has an AC40 of 11000 nM. With `O=C1C(Nc2ccc(Br)cc2)=C(N2CCCCC2)C(=O)c2ccccc21` the AC40 was 14300 nM. Work on `CC(C)N1CCN(C2=C(Nc3ccc(F)cc3F)C(=O)c3ccccc3C2=O)CC1` yielded an AC40 of 3470 nM. In the case of `O=C1C=C(NS(=O)(=O)c2ccccc2)C(=O)c2ccccc21`, the AC40 is reported as 1360 nM. Compound `O=C1C(NS(=O)(=O)c2cccs2)=C(c2ccccc2)C(=O)c2ccccc21` has an AC40 of 10800 nM. With `CN1CCN(C2=C(Nc3ccc(F)cc3F)C(=O)c3ccccc3C2=O)CC1` the AC40 was 3450 nM. Work on `COC1=C(Nc2ccccc2)C(=O)c2ccccc2C1=O` yielded an AC40 of 492 nM. `O=C(NC1=C(Cl)C(=O)c2ccccc2C1=O)c1ccccc1` gave an AC40 of 227 nM. In the case of `Cc1ccc(NC2=CC(=O)c3ccccc3C2=O)cc1`, the AC40 is reported as 745 nM. `C=CCNC1=C(Cl)C(=O)c2ccccc2C1=O` showed an AC40 of 764 nM. For `CCN1CCN(C2=C(NS(=O)(=O)c3ccc(Br)cc3)C(=O)c3ccccc3C2=O)CC1`, the AC40 was 6430 nM. In the case of `NC1=C(NS(=O)(=O)c2cccs2)C(=O)c2ccccc2C1=O`, the AC40 is reported as 2270 nM. Compound `O=C1C(Nc2ccccc2)=C(c2ccccc2)C(=O)c2ccccc21` has an AC40 of 7780 nM. For `CCN1CCN(C2=C(NC(=O)c3ccccc3)C(=O)c3ccccc3C2=O)CC1`, the AC40 was 1150 nM. Work on `O=C1C(Nc2ccc(F)cc2)=C(N2CCCCC2)C(=O)c2ccccc21` yielded an AC40 of 9240 nM. Compound `O=C1C=C(NS(=O)(=O)c2cccs2)C(=O)c2ccccc21` has an AC40 of 1980 nM.
